Results reported in patent publication US9018212B2, “Pyridazine carboxamides as CCR2 receptor antagonists” (Boehringer Ingelheim International GmbH, priority 2010, dated 2015).

Biological target: T1, CCR2 (Homo sapiens, UniProt P41597)
T1 construct: Membranes were prepared from THP-1 cells; endogenous in cells; host or cells: THP-1 (human acute monocytic leukaemia cells), membrane preparation
T1 sequence (P41597 1-360 isoform P41597-2): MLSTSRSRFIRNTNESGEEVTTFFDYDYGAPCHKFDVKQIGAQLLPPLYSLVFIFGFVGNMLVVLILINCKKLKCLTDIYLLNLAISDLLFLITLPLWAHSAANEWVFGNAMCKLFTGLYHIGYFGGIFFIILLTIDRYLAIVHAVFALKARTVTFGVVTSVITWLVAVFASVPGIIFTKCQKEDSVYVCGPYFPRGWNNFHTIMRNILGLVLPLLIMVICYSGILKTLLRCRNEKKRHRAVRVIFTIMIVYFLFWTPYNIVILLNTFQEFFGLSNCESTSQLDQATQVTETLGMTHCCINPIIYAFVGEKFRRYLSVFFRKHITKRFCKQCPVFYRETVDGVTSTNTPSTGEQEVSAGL
Assay: CCR2 receptor membrane binding assay ([125I]MCP-1, THP-1 membranes, SPA beads)
Details: THP-1 cell membranes; [125I]MCP-1 displacement; bound radioactivity after 8 h; read-out: hKi
Procedure: The above exemplary substances have been tested for binding to CCR2 using a binding assay as outlined herein below:
THP-1 cells (human acute monocytic leukaemia cells) were cultured under standardized conditions at 37° C. and 5% CO2 in a humidified incubator. THP-1 cells were cultivated in RPMI 1640 medium (Gibco 21875) containing 1% MEM-NEAA (Gibso 11140) 2 mM L-glutamine, 1.5 g/L sodium bicarbonate, 4.5 g/L glucose, 10 mM HEPES and 1.0 mM sodium pyruvate, 90%; 10% fetal calf serum (FCS Gibco 10500-064).
Membranes were prepared from THP-1 cells. THP-1 cells were centrifuged at 300×g at 4° C. for 10 min. The cell pellet was resuspended in Phosphate Buffer Saline (PBS, including 10 μM Pefabloc and a protease inhibitor mix ‘complete’, Boehringer Mannheim (1 tablet/50 ml)), to a concentration of […]. The membrane preparation was performed by disrupting the cells by nitrogen […] (at 50 bar, for 1 h) in a “Nitrogen Bombe” (Parr Instrument). Cell debris was removed by centrifugation (800×g at 4° C., 1 min). The supernatant was centrifuged at 80000×g, 4° C. for 30 min to sediment the cell membranes. Usually 50 mg of protein (Bradford assay) were yielded from 1×10E9 cells. The membranes were resuspended in 25 mM HEPES, 25 mM MgCl2, 1 mM CaCl2, 10% Glycerine for storage in aliquots at −80° C. in 25 mM HEPES, 25 mM MgCl2, 1 mM CaCl2, 10% Glycerine and stored at −80° C.
Perkin Elmer NEX 332 Jod 125 MCP-1, Stock: 2200 Ci/mmol solved in 2000 μl assay buffer, stored at −20° C. THP-1 membrane were adjusted with 25 mM HEPES, pH 7.2; 5 mM MgCl2; 0.5 mM CaCl2; 0.2% BSA assay buffer to a concentration of 2.5 μg/15 μl. Amersham Biosciences PVT-WGA Beads (RPNQ0001) were adjusted with assay buffer to a concentration of 0.24 mg/30 μl. For preparation of the membrane-bead-suspension membranes and beads were incubated for 30 min at RT under rotation (60 rpm) with a ratio of 1:2. Test compounds dissolved in 100% DMSO to a concentration of 10 mM and are further diluted with 100% DMSO to 1 mM. All additional compound dilutions were obtained with assay buffer, final 1% DMSO. Compounds, membrane-bead-suspension and [125I]MCP-1 (ca. 25000 cpm/10 μl) were incubated. Bound radioactivity was determined by scintillation counter after 8 h. Determination of affinity of test compounds (dissociation constant hKi) is calculated by iterative fitting of experimental data using the “easy sys” program, which is based on law of mass action (Schittkowski K. (1994), Numerische Mathematik, Vol. 68, 129-142).

Compound | Ki
COc1nnc(C(=O)N2CCC(N3CCC(N(C)S(C)(=O)=O)CC3)CC2)c(C)c1NCc1ccc(C(C)(C)C)cc1 [Example 1] | 60 nM
COc1nnc(C(=O)N2CCC(NC3CCOCC3OC)CC2)c(C)c1NCc1ccc(C(C)(C)C)cc1 (centres unmarked) [Example 2] | 40 nM
COc1nnc(C(=O)N2CCC(N[C@H]3CCOC[C@H]3OC)CC2)c(C)c1NC[C@H]1CCC[C@@H](c2ccccc2)C1 [Example 3] | 1 nM
COc1nnc(C(=O)N2CCC(N[C@H]3CCOC[C@H]3OC)CC2)c(C)c1N1CCc2ccc(C(F)(F)F)cc2C1 [Example 4] | 10 nM
COc1nnc(C(=O)N2CCC(N[C@H]3CCOC[C@H]3OC)CC2)c(C)c1NC[C@H]1CCC[C@@H](c2ccc(OC(F)(F)F)cc2)O1 [Example 5] | 3 nM
COc1nnc(C(=O)N2CCC(N[C@@H]3CCOC[C@@H]3OC)CC2)c(C)c1NC[C@H]1CCC[C@@H](c2ccc(C)cc2)O1 [Example 6] | 4 nM
COc1nnc(C(=O)N2CCC(N[C@H]3CCOC[C@H]3OC)CC2)c(C)c1NC[C@H]1CCC[C@@H](c2ccc(C(F)(F)F)cc2)O1 [Example 7] | 1 nM
COc1nnc(C(=O)N2CCC(N[C@@H]3CCOC[C@@H]3OC)CC2)c(C)c1NC[C@H]1CCC[C@@H](c2ccc(C(F)(F)F)cc2)O1 [Example 8] | 2 nM
COC1COCCC1NC1CCN(C(=O)c2nncc(NCc3ccc(C(C)(C)C)cc3)c2C)CC1 (centres unmarked) [Example 9] | 27 nM
CO[C@@H]1COCC[C@@H]1NC1CCN(C(=O)c2nncc(NC[C@H]3CCC[C@@H](c4ccccc4)C3)c2C)CC1 [Example 10] | 3 nM
CO[C@@H]1COCC[C@@H]1NC1CCN(C(=O)c2nncc(N3CCc4ccc(C(F)(F)F)cc4C3)c2C)CC1 [Example 11] | 16 nM
CO[C@@H]1COCC[C@@H]1NC1CCN(C(=O)c2nncc(NC[C@H]3CCC[C@@H](c4ccc(OC(F)(F)F)cc4)O3)c2C)CC1 [Example 12] | 0.7 nM
Cc1ccc([C@@H]2CCC[C@H](CNc3cnnc(C(=O)N4CCC(NC5CCOCC5F)CC4)c3C)O2)cc1 (some centres unmarked) [Example 13] | 35 nM
Cc1c(NC[C@H]2CCC[C@@H](c3ccc(OC(F)(F)F)cc3)O2)cnnc1C(=O)N1CCC(NC2CCOCC2F)CC1 (some centres unmarked) [Example 14] | 5 nM
CO[C@H]1COCC[C@H]1NC1CCN(C(=O)c2nncc(NC[C@H]3CCC[C@@H](c4ccc(C(F)(F)F)cc4)O3)c2C)CC1 [Example 15] | 6 nM
CO[C@@H]1COCC[C@@H]1NC1CCN(C(=O)c2nncc(NC[C@H]3CCC[C@@H](c4ccc(C(F)(F)F)cc4)O3)c2C)CC1 [Example 16] | 3 nM
CO[C@H]1COCC[C@H]1NC1CCN(C(=O)c2nncc(N3CCc4ccc(C(F)(F)F)cc4C3)c2C)CC1 [Example 17] | 73 nM
Cc1c(NC[C@H]2CCC[C@@H](c3ccccc3)C2)cnnc1C(=O)N1CCC(NC2CCOCC2F)CC1 (some centres unmarked) [Example 18] | 7 nM
Cc1c(NC[C@H]2CCC[C@@H](c3ccc(C(F)(F)F)cc3)O2)cnnc1C(=O)N1CCC(NC2CCOCC2F)CC1 (some centres unmarked) [Example 19] | 9 nM
Cc1c(N2CCc3ccc(C(F)(F)F)cc3C2)cnnc1C(=O)N1CCC(NC2CCOCC2F)CC1 (centres unmarked) [Example 20] | 54 nM
Cc1c(Nc2ccc(Cl)c(Cl)c2)cnnc1C(=O)N1CCC(NC2CCOCC2F)CC1 (centres unmarked) [Example 21] | 41 nM
CO[C@@H]1COCC[C@@H]1NC1CCN(C(=O)c2nncc(Nc3ccc(Cl)c(Cl)c3)c2C)CC1 [Example 22] | 4 nM
COC1COCCC1NC1CCN(C(=O)c2nnc(C)c(NCc3ccc(C(C)(C)C)cc3)c2C)CC1 (centres unmarked) [Example 23] | 128 nM
